Source: patent publication US20200102295A1, “NITROCATECHOL DERIVATIVES AS COMT INHIBITORS” (BIAL - PORTELA & CA, S.A., priority 2005, published 2020)
Where “and” joins values, the source holds several entries; their conditions need not be identical. Equal entries are not always repeated.

How the values were obtained:
[1] = biological target: T1, mouse liver COMT (Mus musculus, UniProt O88587); assay: Mouse liver COMT activity after oral administration of test compounds; format: in vivo; settings: 3 mg/kg oral, 3 h after administration
T1 construct: Aliquots of 0.5 ml of liver homogenates were preincubated; from tissue; host or cells: mouse liver homogenate (NMRI mice, dosed orally; ex vivo activity)
T1 sequence (O88587 1-265): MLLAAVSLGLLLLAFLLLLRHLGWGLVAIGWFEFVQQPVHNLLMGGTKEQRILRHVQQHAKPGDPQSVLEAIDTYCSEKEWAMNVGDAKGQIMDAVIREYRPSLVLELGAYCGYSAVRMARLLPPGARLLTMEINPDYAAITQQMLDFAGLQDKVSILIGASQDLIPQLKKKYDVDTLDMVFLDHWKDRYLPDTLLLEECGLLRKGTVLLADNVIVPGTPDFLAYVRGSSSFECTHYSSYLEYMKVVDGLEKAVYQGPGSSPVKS

[2] = system: Neuro 2A mouse neuroblastoma cells; assay: Cell toxicity: Neuro 2A cell viability (calcein-AM); format: cell-based; settings: Neuro 2A cells, 30 μM, 24 h exposure

| Compound | COMT activity (% of control) [1] | % of viable cells [2] | COMT activity (% of control) ([1]; 3 mg/kg) |
| --- | --- | --- | --- |
| O=[N+]([O-])c1cc(-c2nc(-c3cc[n+]([O-])c(-c4ccoc4)c3)no2)cc(O)c1O [Compound 10, 5-[3-(2-Furan-3-yl-1-oxy-pyridine-4-yl)-[1,2,4]oxadiazol-5-yl]-3-nitro-benzene-1,2-diol] | 95.2 % of control | 69.3% |  |
| Cc1nc(-c2cc(O)c(O)c([N+](=O)[O-])c2)no1 [Compound 2, 5-(5-Methyl-[1,2,4]oxadiazol-3-yl)-3-nitro-benzene-1,2-diol] |  | 92.5% | 79 % of control and 78.8 % of control |
| Cc1cc(C(F)(F)F)c(-c2noc(-c3cc(O)c(O)c([N+](=O)[O-])c3)n2)c(C)[n+]1[O-] [Compound 31, 5-[3-(2,6-Dimethyl-1-oxy-4-trifluoromethyl-pyridin-3-yl)-[1,2,4]oxadiazol-5-yl]-3-nitro-benzene-1,2-diol] | 0.8 % of control | 37.2% |  |
| O=[N+]([O-])c1cc(-c2nc(-c3cccc[n+]3[O-])no2)cc(O)c1O [Compound 6, 3-Nitro-5-[3-(1-oxy-pyridin-2-yl)-[1,2,4]oxadiazol-5-yl]-benzene-1,2-diol] | 101.0 % of control | 107.1% |  |
| O=[N+]([O-])c1cc(-c2nc(-c3cc[n+]([O-])cc3)no2)cc(O)c1O [Compound 4, 3-Nitro-5-[3-(1-oxy-pyridin-4-yl)-[1,2,4]oxadiazol-5-yl]-benzene-1,2-diol] | 42.1 % of control | 98.3% |  |
| O=[N+]([O-])c1cc(-c2nc(COc3ccc(C(F)(F)F)c[n+]3[O-])no2)cc(O)c1O [Compound 44, 3-Nitro-5-[3-(1′-oxy-5-trifluoromethyl-pyridin-2-yloxymethyl)-[1,2,4]oxadiazol-5-yl]-benzene-1,2-diol] | 24.5 % of control |  |  |
| O=[N+]([O-])c1cc(-c2nc(-c3cc(Br)c[n+]([O-])c3)no2)cc(O)c1O [Compound 19, 5-[3-(5-Bromo-1-oxy-pyridin-3-yl)-[1,2,4]oxadiazol-5-yl]-3-nitro-benzene-1,2-diol] | 45.2 % of control | 100.1% |  |
| Cc1c(-c2noc(-c3cc(O)c(O)c([N+](=O)[O-])c3)n2)c[n+]([O-])c(C)c1C [Compound 46, 3-Nitro-5-[3-(4,5,6-trimethyl-1-oxy-pyridin-3-yl)-[1,2,4]oxadiazol-5-yl]-benzene-1,2-diol] | 43.1 % of control | 53.0% |  |
| O=[N+]([O-])c1cc(-c2nc(-c3ccc(C(F)(F)F)[n+]([O-])c3)no2)cc(O)c1O [Compound 28, 3-Nitro-5-[3-(1-oxy-6-trifluoromethyl-pyridin-3-yl)-[1,2,4]oxadiazol-5-yl]-benzene-1,2-diol] | 11.3 % of control | 87.0% |  |
| O=[N+]([O-])c1cc(-c2nc(Cc3ccc[n+]([O-])c3)no2)cc(O)c1O [Compound 39, 3-Nitro-5-[3-(1′-oxy-pyridin-3-ylmethyl)-[1,2,4]oxadiazol-5-yl]-benzenediol] | 53.8 % of control | 94.9% |  |
| O=[N+]([O-])c1cc(-c2nc(-c3cc[n+]([O-])c(N4CCOCC4)c3)no2)cc(O)c1O [Compound 11, 5-[3-(2-Morpholin-4-yl-1-oxy-pyridine-4-yl)-[1,2,4]oxadiazol-5-yl]-3-nitro-benzene-1,2-diol] | 63.9 % of control | 105.7% |  |
| O=[N+]([O-])c1cc(-c2nc(-c3ccc(Cl)[n+]([O-])c3)no2)cc(O)c1O [Compound 23, 5-[3-(6-Chloro-1-oxy-pyridin-3-yl)-[1,2,4]oxadiazol-5-yl]-3-nitro-benzene-1,2-diol] | 43 % of control | 41.1% |  |
| O=[N+]([O-])c1cc(-c2nc(-c3cc(-c4ccccc4)c[n+]([O-])c3)no2)cc(O)c1O [Compound 22, 3-Nitro-5-[3-(1-oxy-5-phenyl-pyridin-3-yl)-[1,2,4]oxadiazol-5-yl]-benzene-1,2-diol] | 111.6 % of control |  |  |
| Cc1cc(C)[n+]([O-])c(Cl)c1-c1noc(-c2cc(O)c(O)c([N+](=O)[O-])c2)n1 [Compound 37, 5-[3-(2-Chloro-4,6-dimethyl-1-oxy-pyridin-3-yl)-[1,2,4]oxadiazol-5-yl]-3-nitro-benzene-1,2-diol] | 42.5 % of control | 92.3% |  |
| Cc1ccc(-c2noc(-c3cc(O)c(O)c([N+](=O)[O-])c3)n2)c(Cl)[n+]1[O-] [Compound 25, 5-[3-(2-Chloro-6-methyl-1-oxy-pyridin-3-yl)-[1,2,4]oxadiazol-5-yl]-3-nitro-benzene-1,2-diol] | 23.1 % of control | 100.2% |  |
| Cc1ccc(-c2noc(-c3cc(O)c(O)c([N+](=O)[O-])c3)n2)c[n+]1[O-] [Compound 20, 5-[3-(6-Methyl-1-oxy-pyridin-3-yl)-[1,2,4]oxadiazol-5-yl]-3-nitro-benzene-1,2-diol] | 56.6 % of control |  |  |
| O=[N+]([O-])c1cc(-c2nc(-c3cc[n+]([O-])c(Cl)c3)no2)cc(O)c1O [Compound 8, 5-[3-(2-Chloro-1-oxy-pyridin-4-yl)-[1,2,4]oxadiazol-5-yl]-3-nitro-benzene-1,2-diol] | 55.4 % of control | 106.7% |  |
| O=[N+]([O-])c1cc(-c2nc(-c3cc[n+]([O-])c4ccccc34)no2)cc(O)c1O [Compound 34, 3-Nitro-5-[3-(1-oxy-quinolin-4-yl)-[1,2,4]oxadiazol-5-yl]-benzene-1,2-diol] | 88.6 % of control |  |  |
| O=[N+]([O-])c1cc(-c2nc(-c3ccc[n+]([O-])c3Cl)no2)cc(O)c1O [Compound 24, 5-[3-(2-Chloro-1-oxy-pyridin-3-yl)-[1,2,4]oxadiazol-5-yl]-3-nitro-benzene-1,2-diol] | 71.8 % of control | 93.7% |  |
| Cc1noc(-c2cc(O)c(O)c([N+](=O)[O-])c2)n1 [Compound 1, 5-(3-methyl-1,2,4-oxadiazol-5-yl)-3-nitropyrocatechol, reference compound] |  | 55% and 55.1% | 59 % of control and 59.9 % of control |
| O=[N+]([O-])c1cc(-c2nc(-c3cc[n+]([O-])c(-c4ccccc4)c3)no2)cc(O)c1O [Compound 9, 3-Nitro-5-[3-(1-oxy-2-phenyl-pyridin-4-yl)-[1,2,4]oxadiazol-5-yl]-benzene-1,2-diol] | 80.6 % of control | 79.7% |  |
| Cc1c(C)c(C)[n+]([O-])c(Br)c1-c1noc(-c2cc(O)c(O)c([N+](=O)[O-])c2)n1 [Compound 40, 5-[3-(2-Bromo-4,5,6-trimethyl-1-oxy-pyridin-3-yl)-[1,2,4]oxadiazol-5-yl]-3-nitrobenzene-1,2-diol] | 55.2 % of control | 69.1% |  |
| Cc1ccc(-c2noc(-c3cc(O)c(O)c([N+](=O)[O-])c3)n2)c(Br)[n+]1[O-] [Compound 36, 5-[3-(2-Bromo-6-methyl-1-oxy-pyridin-3-yl)-[1,2,4]oxadiazol-5-yl]-3-nitro-benzene-1,2-diol] | 22.9 % of control | 76.3% |  |
| Cc1cc(C)[n+]([O-])c(Br)c1-c1noc(-c2cc(O)c(O)c([N+](=O)[O-])c2)n1 [Compound 38, 5-[3-(2-Bromo-4,6-dimethyl-1-oxy-pyridin-3-yl)-[1,2,4]oxadiazol-5-yl]-3-nitro-benzene-1,2-diol] | 16.3 % of control | 86.0% |  |
| Cc1nnc(-c2cc(O)c(O)c([N+](=O)[O-])c2)o1 [Compound 3, 5-(5-Methyl-[1,3,4]oxadiazol-2-yl)-3-nitro-benzene-1,2-diol] |  | 100.5% | 64 % of control and 63.6 % of control |
| O=[N+]([O-])c1cc(-c2nc(-c3cc4ccccc4[n+]([O-])c3)no2)cc(O)c1O [Compound 35, 3-Nitro-5-[3-(1-oxy-quinolin-3-yl)-[1,2,4]oxadiazol-5-yl]-benzene-1,2-diol] | 81.2 % of control |  |  |
| Cc1cc[n+]([O-])cc1-c1noc(-c2cc(O)c(O)c([N+](=O)[O-])c2)n1 [Compound 21, 5-[3-(4-Methyl-1-oxy-pyridin-3-yl)-[1,2,4]oxadiazol-5-yl]-3-nitro-benzene-1,2-diol] | 95.6 % of control |  |  |
| O=[N+]([O-])c1cc(-c2nc(-c3cc[n+]([O-])c(Sc4ccccc4)c3)no2)cc(O)c1O [Compound 13, 3-Nitro-5-[3-(1-oxy-2-phenylsulfanyl-pyridin-4-yl)-[1,2,4]oxadiazol-5-yl]-benzene-1,2-diol] | 102.3 % of control |  |  |
